Holding throughout (type): cell-based
The test system of experiment [1] is Bacillus subtilis (ATCC43639). The experiment can be described thus: Microtitre plate assay, IC90 determination, BSU 43639. The conditions noted are these: 90% inhibitory concentration for bacterial growth, 37° C., resazurin fluorescence; for IC90 (μg/ml) BSU 43639: 24 hours. Here is the method: (§1) The bacteria used in this study were grown overnight in flasks containing 100 ml Mueller-Hinton Broth (Becton Dickinson—cat. no. 275730) in sterile de-ionized water, with shaking, at 37° C. Stocks (0.5 ml/tube) were stored at −70° C. until use. Bacteria titrations were performed in microtiter plates to detect the TCID50, in which the TCID50 represents the dilution that gives rise to bacterial growth in 50% of inoculated cultures.
(§2) In general, an inoculum level of approximately 100 TCID50 was used for susceptibility testing.
(§3) Flat-bottom, sterile 96-well plastic microtiter plates were filled with 180 μl of sterile deionized water, supplemented with 0.25% BSA. Subsequently, stock solutions (7.8× final test concentration) of compounds were added in 45 μl volumes in column 2. Serial five-fold dilutions (45 μl in 180 μl) were made directly in the microtiter plates from column 2 to reach column 11. Untreated control samples with (column 1) and without (column 12) inoculum were included in each microtiter plate. Depending on the bacteria type, approximately 10 to 60 CFU per well of bacteria inoculum (100 TCID50), in a volume of 100 μl in 2.8× Mueller-Hinton broth medium, was added to the rows A to H, except column 12. The same volume of broth medium without inoculum was added to column 12 in row A to H. The cultures were incubated at 37° C. for 24 hours under a normal atmosphere (incubator with open air valve and continuous ventilation). At the end of incubation, one day after inoculation, the bacterial growth was quantitated fluorometrically. Therefore resazurin (0.6 mg/ml) was added in a volume of 20 μl to all wells 3 hours after inoculation, and the plates were re-incubated overnight. A change in colour from blue to pink indicated the growth of bacteria. The fluorescence was read in a computer-controlled fluorometer (Cytofluor Biosearch) at an excitation wavelength of 530 nm and an emission wavelength of 590 nm. The % growth inhibition achieved by the compounds was calculated according to standard methods. The IC90 (expressed in μg/ml) was defined as the 90% inhibitory concentration for bacterial growth.
(§4) BSU 3639 means Bacillus subtilis (ATCC43639); ECO 25922 means Escherichia coli (ATCC25922); EFA 14506 means Enterococcus faecalis (ATCC14506); EFA 29212 means Enterococcus faecalis (ATCC29212); LMO 49594 means Listeria monocytogenes (ATCC49594); PAE 27853 means Pseudomonas aeruginosa (ATCC27853); SMU 33402 means Streptococcus mutans (ATCC33402); SPN 6305 means Streptococcus pneumoniae (ATCC6305); SPY 8668 means Streptococcus pyogens (ATCC8668); STA 43300 means Staphylococcus aureus (ATCC43300); STA 25923 means Staphylococcus aureus (ATCC25923); STA 29213 means Staphylococcus aureus (ATCC29213); STA RMETH means methicilline resistant Staphylococcus aureus (MRSA) (a clinical isolate from the University of Antwerp). ATCC means American type tissue culture.
For orientation: The colour change of resazurin is a common sign of viable cells or microbes.

In experiment [2] the test system is Listeria monocytogenes (ATCC49594). Put plainly: Microtitre plate assay, IC90 determination, LMO 49594. The conditions noted are these: 90% inhibitory concentration for bacterial growth, 37° C., resazurin fluorescence; for IC90: Listeria monocytogenes, ATCC49594, 24 h, read-out: IC90 (μg/ml) LMO 49594; for IC90 (μg/ml) LMO 49594: 24 hours. Here is the method:
as §1, §2, §3, §4

Experiment [3] relates to Enterococcus faecalis (ATCC29212). Put plainly: Microtitre plate assay, IC90 determination, EFA 29212. The following applies: 90% inhibitory concentration for bacterial growth, 37° C., resazurin fluorescence; for IC90: Enterococcus faecalis, ATCC29212, 24 h, read-out: IC90 (μg/ml) EFA 29212; for IC90 (μg/ml) EFA 29212: 24 hours. Here is the method:
as §1, §2, §3, §4

For experiment [4], the system named is Pseudomonas aeruginosa (ATCC27853). The experiment can be described thus: Microtitre plate assay, IC90 determination, PAE 27853. The following applies: 90% inhibitory concentration for bacterial growth, 37° C., resazurin fluorescence; for IC90: Pseudomonas aeruginosa, ATCC27853, 24 h, read-out: IC90 (μg/ml) PAE 27853. On the procedure: as §1, §2, §3, §4
For experiment [5], the system named is Streptococcus pneumoniae (ATCC6305). The experiment can be described thus: Microtitre plate assay, IC90 determination, SPN 6305. The conditions noted are these: 90% inhibitory concentration for bacterial growth, 37° C., resazurin fluorescence; for IC90: Streptococcus pneumoniae, ATCC6305, 24 h, read-out: IC90 (μg/ml) SPN 6305; for IC90 (μg/ml) SPN 6305: 24 hours. Here is the method:
as §1, §2, §3, §4

In experiment [6] the test system is Streptococcus pyogens (ATCC8668). Put plainly: Microtitre plate assay, IC90 determination, SPY 8668. The following applies: 90% inhibitory concentration for bacterial growth, 37° C., resazurin fluorescence; for IC90: Streptococcus, ATCC8668, 24 h, read-out: IC90 (μg/ml) SPY 8668; for IC90 (μg/ml) SPY 8668: 24 hours. Here is the method: as §1, §2, §3, §4
Experiment [7] relates to Streptococcus mutans (ATCC33402). The experiment can be described thus: Microtitre plate assay, IC90 determination, SMU 33402. The following applies: 90% inhibitory concentration for bacterial growth, 37° C., resazurin fluorescence; for IC90 (μg/ml) SMU 33402: 24 hours. On the procedure:
as §1, §2, §3, §4

Structures are written as SMILES. Converted amounts (≈) assume the structure as drawn.

The record followed here is patent US7709498B2, “Quinoline derivatives as antibacterial agents” (Janssen Pharmaceutica N.V., priority 2005, dated 2010).

As for `COc1nc2ccc(Br)cc2cc1C(c1ccccc1)C(O)(CCN(C)C)C1CCN(C(=O)c2ccccc2)CC1` (stereo not drawn) [Compound 201], the IC90 in experiment [1] (Bacillus subtilis, ATCC43639, 24 h, read-out: IC90 (μg/ml) BSU 43639) came out at 12.3 µg/mL (≈ 19.9 µM); in experiment [2], 12.3 µg/mL (≈ 19.9 µM); in experiment [3] it was 12.3 µg/mL (≈ 19.9 µM); in experiment [4], 12.3 µg/mL (≈ 19.9 µM).
As for `COc1nc2ccc(Br)cc2cc1C(c1ccccc1)C(O)(CCN(C)C)c1ccc(Cl)cc1` (stereo not drawn) [Compound 16], the IC90 in experiment [4] came to 13.6 µg/mL (≈ 25.2 µM).
Take `COc1nc2ccc(Br)cc2cc1C(c1ccccc1)C(O)(CCN(C)C)c1ccccc1F` (stereo not drawn) [Compound 69]: the values for the IC90 in experiment [2], in experiment [4] and in experiment [5] were 10.4 µg/mL (≈ 19.9 µM), 10.4 µg/mL (≈ 19.9 µM) and 13.1 µg/mL (≈ 25 µM), respectively.
For the molecule `COc1nc2ccc(Br)cc2cc1C(c1ccccc1)C(O)(CCN1CCCCC1)c1ccccc1` (stereo not drawn) [Compound 48], the IC90 was found to be 10.9 µg/mL (≈ 20 µM) in experiment [2]; 13.7 µg/mL (≈ 25.1 µM) in experiment [6]; 10.9 µg/mL (≈ 20 µM) in experiment [7] (Streptococcus mutans, ATCC33402, 24 h, read-out: IC90 (μg/ml) SMU 33402); 10.9 µg/mL (≈ 20 µM) in experiment [4]; 13.7 µg/mL (≈ 25.1 µM) in experiment [5].
For `COc1nc2ccc(Br)cc2cc1C(c1ccccc1)C(O)(CC[N+](C)(C)[O-])c1ccccc1` (racemic) [Compound 11], the “IC90 (μg/ml) LMO 49594” value in experiment [2] was found to be 11.7 µg/mL (≈ 22.4 µM). Also, in experiment [6], the “IC90 (μg/ml) SPY 8668” value stood at 11.7 µg/mL (≈ 22.4 µM). For the same molecule, the “IC90 (μg/ml) SMU 33402” value in experiment [7] amounted to 10.4 µg/mL (≈ 19.9 µM).
On to `COc1nc2ccc(-c3ccccc3)cc2cc1C(c1ccccc1)C(O)(CCN(C)C)c1ccccc1` (stereo not drawn) [Compound 27], for which the “IC90 (μg/ml) BSU 43639” value in experiment [1] was found to be 10.0 µg/mL (≈ 19.9 µM). The “IC90 (μg/ml) LMO 49594” value in experiment [2] was found to be 8.9 µg/mL (≈ 17.7 µM). In addition, the “IC90 (μg/ml) SPN 6305” value in experiment [5] was determined as 12.6 µg/mL (≈ 25.1 µM).
As for `COc1nc2ccc(Br)cc2cc1C(c1ccccc1)C(O)(CCN1CCN(C)CC1)c1ccc2ccccc2c1` (racemic) [Compound 136], the “IC90 (μg/ml) BSU 43639” value in experiment [1] was determined as 10.6 µg/mL (≈ 17.4 µM). The “IC90 (μg/ml) LMO 49594” value in experiment [2] turned out to be 10.6 µg/mL (≈ 17.4 µM). The “IC90 (μg/ml) EFA 29212” value in experiment [3] came to 10.6 µg/mL (≈ 17.4 µM).
On to `COc1nc2ccc(Br)cc2cc1C(c1ccccc1)C(O)(CCN(C)C)c1ccc2c(c1)OCCO2` (stereo not drawn) [Compound 77], for which the IC90 in experiment [4] is 11.2 µg/mL (≈ 19.9 µM); in experiment [5], 14.2 µg/mL (≈ 25.2 µM).
On to `CCOc1nc2ccc(Br)cc2cc1C(c1ccccc1)C(O)(CCN(C)C)c1ccccc1` (stereo not drawn) [Compound 6], for which the IC90 in experiment [2] came out at 11.6 µg/mL (≈ 22.3 µM); in experiment [3], 11.6 µg/mL (≈ 22.3 µM); in experiment [6], 4.6 µg/mL (≈ 8.85 µM); in experiment [4], 11.6 µg/mL (≈ 22.3 µM); in experiment [5], 13 µg/mL (≈ 25 µM). Besides, in experiment [7], the “IC90 (μg/ml) SMU 33402” value was found to be 4.6 µg/mL (≈ 8.85 µM).
Take `COc1nc2ccc(Br)cc2cc1C(c1ccccc1)C(O)(CCN(C)C)c1ccccc1` (single isomer, unassigned) [F]: in experiment [6], the “IC90 (μg/ml) SPY 8668” value worked out at 22.6 µg/mL (≈ 44.7 µM). Further, the “IC90 (μg/ml) SMU 33402” value in experiment [7] worked out at 22.6 µg/mL (≈ 44.7 µM). Moreover, in experiment [5], the “IC90 (μg/ml) SPN 6305” value came out at 25.3 µg/mL (≈ 50.1 µM).
As to `COc1nc2ccc(Cl)cc2cc1C(c1ccccc1)C(O)(CCN(C)C)c1ccccc1` (stereo not drawn) [Compound 30], in experiment [2], the “IC90 (μg/ml) LMO 49594” value turned out to be 10.3 µg/mL (≈ 22.3 µM). Moreover, in experiment [3], the “IC90 (μg/ml) EFA 29212” value amounted to 10.3 µg/mL (≈ 22.3 µM). The “IC90 (μg/ml) SPY 8668” value in experiment [6] came to 10.3 µg/mL (≈ 22.3 µM). In experiment [7], the “IC90 (μg/ml) SMU 33402” value was determined as 10.3 µg/mL (≈ 22.3 µM). Further, the “IC90 (μg/ml) PAE 27853” value in experiment [4] (24 hours) was determined as 9.2 µg/mL (≈ 20 µM). Further, in experiment [5], the “IC90 (μg/ml) SPN 6305” value was determined as 5.2 µg/mL (≈ 11.3 µM).
